ChEMBL document CHEMBL5291721, “A preclinical secondary pharmacology resource illuminates target-adverse drug reaction associations of marketed drugs” (Nat Commun, 2023)

Assays:
Histamine H1 receptor [1] = biological target: T1, Histamine H1 receptor (Homo sapiens, UniProt P35367); format: functional, cell-based
[2] = biological target: Gamma-aminobutyric acid receptor subunit alpha-1/alpha-2/beta-2/gamma-2 (Homo sapiens, UniProt P14867+P18507+P47869+P47870); format: functional, cell-based
Histamine H1 receptor [3] = biological target: T1, Histamine H1 receptor; format: functional, cell-based; remark: listed apart in the source
[4] = biological target: Beta-3 adrenergic receptor (Homo sapiens, UniProt P13945)
[5] = biological target: Voltage-dependent N-type calcium channel subunit alpha-1B (Rattus norvegicus, UniProt Q02294); format: functional
[6] = biological target: T2, Muscarinic acetylcholine receptor M2 (Homo sapiens, UniProt P08172)
T2 sequence (P08172 whole entry): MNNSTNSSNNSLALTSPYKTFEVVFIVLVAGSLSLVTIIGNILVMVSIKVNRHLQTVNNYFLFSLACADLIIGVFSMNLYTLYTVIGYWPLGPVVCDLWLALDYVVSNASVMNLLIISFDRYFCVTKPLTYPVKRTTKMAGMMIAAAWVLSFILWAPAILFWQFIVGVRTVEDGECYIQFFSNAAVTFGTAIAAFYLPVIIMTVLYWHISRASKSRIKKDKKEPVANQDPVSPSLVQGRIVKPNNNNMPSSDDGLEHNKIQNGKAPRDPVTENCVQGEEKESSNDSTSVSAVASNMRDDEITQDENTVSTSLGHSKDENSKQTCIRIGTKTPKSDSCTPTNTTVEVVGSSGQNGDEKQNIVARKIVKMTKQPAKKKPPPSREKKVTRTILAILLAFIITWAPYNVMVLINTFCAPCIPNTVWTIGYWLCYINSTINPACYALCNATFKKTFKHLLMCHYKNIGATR

[7] = biological target: T3, 5-hydroxytryptamine receptor 1A (Homo sapiens, UniProt P08908)
T3 sequence (P08908 whole entry): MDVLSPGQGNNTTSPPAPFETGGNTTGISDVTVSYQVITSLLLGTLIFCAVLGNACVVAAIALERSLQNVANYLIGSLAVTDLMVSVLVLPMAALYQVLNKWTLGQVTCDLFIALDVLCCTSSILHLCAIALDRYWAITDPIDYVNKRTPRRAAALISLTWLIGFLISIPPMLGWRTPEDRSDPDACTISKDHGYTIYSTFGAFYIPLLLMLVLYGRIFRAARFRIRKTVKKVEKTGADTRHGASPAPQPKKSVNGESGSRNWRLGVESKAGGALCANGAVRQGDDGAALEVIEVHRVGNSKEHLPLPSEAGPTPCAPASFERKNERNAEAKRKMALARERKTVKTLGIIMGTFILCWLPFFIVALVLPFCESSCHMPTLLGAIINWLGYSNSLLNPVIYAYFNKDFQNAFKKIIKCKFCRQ

[8] = biological target: Beta-1 adrenergic receptor (Homo sapiens, UniProt P08588); format: functional, cell-based
Androgen receptor = biological target: T4, Androgen receptor (Rattus norvegicus, UniProt P15207); format: functional
T4 sequence (P15207 whole entry): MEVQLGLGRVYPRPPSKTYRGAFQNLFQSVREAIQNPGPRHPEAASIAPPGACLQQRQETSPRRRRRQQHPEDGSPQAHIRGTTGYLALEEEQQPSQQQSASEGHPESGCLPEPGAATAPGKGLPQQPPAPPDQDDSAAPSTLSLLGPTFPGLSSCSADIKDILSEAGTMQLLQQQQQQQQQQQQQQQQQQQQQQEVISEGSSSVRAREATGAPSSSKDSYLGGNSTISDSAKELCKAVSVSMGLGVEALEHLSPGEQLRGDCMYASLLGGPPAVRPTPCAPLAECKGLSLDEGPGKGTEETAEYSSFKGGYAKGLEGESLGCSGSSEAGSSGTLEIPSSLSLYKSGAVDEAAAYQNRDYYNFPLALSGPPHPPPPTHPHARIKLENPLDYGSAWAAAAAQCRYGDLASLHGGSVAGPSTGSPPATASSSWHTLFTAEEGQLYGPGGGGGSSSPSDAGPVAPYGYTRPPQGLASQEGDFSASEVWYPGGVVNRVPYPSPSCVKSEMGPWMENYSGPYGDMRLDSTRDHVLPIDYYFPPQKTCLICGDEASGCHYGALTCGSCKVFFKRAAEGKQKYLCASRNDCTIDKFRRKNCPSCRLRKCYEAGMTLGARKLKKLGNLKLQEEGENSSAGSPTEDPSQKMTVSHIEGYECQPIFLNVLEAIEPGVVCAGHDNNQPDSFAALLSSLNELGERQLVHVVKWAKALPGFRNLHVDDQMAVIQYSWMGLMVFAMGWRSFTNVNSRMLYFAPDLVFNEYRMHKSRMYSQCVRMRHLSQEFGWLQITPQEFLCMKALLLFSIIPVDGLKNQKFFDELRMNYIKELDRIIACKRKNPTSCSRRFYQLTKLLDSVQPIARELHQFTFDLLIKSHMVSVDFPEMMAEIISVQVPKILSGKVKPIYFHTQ

[9] = biological target: T5, Peroxisome proliferator-activated receptor gamma (Homo sapiens, UniProt P37231); format: functional
T5 sequence (P37231 whole entry): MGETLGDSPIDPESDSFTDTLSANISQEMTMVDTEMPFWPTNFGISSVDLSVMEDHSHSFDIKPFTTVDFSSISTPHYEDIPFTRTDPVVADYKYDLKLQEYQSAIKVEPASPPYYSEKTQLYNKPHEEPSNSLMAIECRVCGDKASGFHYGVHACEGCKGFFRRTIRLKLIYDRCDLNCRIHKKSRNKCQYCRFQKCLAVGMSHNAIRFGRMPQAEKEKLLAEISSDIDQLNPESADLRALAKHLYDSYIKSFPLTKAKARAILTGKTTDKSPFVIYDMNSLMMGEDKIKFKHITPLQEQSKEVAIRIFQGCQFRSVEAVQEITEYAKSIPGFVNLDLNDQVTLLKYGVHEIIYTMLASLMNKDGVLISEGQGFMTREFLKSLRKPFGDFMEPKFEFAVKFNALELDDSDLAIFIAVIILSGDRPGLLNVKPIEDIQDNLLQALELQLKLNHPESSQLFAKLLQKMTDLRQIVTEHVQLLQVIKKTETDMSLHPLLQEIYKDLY

[10] = biological target: Sodium channel protein type 5 subunit alpha (Homo sapiens, UniProt Q14524); format: functional, cell-based
Further: assay procedure not described here.

Chain of Beta-1 adrenergic receptor (P08588 whole entry): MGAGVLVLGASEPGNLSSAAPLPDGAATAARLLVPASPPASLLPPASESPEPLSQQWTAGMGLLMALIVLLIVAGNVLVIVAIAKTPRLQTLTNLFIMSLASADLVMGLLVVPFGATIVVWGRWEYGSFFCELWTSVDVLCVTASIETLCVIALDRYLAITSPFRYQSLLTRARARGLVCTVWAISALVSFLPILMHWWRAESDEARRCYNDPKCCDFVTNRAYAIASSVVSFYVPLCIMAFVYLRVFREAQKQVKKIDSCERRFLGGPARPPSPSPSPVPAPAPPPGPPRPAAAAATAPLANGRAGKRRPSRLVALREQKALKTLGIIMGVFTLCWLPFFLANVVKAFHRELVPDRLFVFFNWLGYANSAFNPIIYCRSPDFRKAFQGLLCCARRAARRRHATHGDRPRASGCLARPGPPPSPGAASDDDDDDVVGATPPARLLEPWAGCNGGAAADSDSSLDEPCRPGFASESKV
Chain of Gamma-aminobutyric acid receptor subunit alpha-1/alpha-2/beta-2/gamma-2 (P14867 whole entry): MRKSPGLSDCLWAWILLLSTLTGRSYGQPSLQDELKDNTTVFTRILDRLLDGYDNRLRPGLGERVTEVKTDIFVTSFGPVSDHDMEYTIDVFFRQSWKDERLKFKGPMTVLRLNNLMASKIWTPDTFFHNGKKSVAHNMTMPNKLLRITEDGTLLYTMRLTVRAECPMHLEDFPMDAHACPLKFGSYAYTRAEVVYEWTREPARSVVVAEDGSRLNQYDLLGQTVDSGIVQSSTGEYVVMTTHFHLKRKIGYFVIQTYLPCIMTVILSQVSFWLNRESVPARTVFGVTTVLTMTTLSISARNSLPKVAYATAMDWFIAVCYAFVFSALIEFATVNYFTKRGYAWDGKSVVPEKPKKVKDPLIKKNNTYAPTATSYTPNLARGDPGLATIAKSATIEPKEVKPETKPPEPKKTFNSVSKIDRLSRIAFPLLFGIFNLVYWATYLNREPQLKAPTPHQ
Chain of Gamma-aminobutyric acid receptor subunit alpha-1/alpha-2/beta-2/gamma-2 (P47870 whole entry): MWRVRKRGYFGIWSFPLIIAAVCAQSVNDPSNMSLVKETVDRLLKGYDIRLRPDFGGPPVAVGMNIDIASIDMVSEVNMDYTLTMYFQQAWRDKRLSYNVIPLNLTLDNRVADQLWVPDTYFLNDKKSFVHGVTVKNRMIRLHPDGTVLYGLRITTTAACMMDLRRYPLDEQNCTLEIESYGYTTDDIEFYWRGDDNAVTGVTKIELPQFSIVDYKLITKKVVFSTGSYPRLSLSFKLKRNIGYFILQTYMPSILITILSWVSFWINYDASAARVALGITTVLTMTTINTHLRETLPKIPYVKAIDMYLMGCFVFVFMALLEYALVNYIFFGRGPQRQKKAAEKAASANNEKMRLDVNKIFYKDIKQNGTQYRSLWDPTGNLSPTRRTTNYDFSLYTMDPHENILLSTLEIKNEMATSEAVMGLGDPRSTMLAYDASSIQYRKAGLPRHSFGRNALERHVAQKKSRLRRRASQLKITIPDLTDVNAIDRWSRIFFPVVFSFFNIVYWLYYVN
Chain of Gamma-aminobutyric acid receptor subunit alpha-1/alpha-2/beta-2/gamma-2 (P18507 whole entry): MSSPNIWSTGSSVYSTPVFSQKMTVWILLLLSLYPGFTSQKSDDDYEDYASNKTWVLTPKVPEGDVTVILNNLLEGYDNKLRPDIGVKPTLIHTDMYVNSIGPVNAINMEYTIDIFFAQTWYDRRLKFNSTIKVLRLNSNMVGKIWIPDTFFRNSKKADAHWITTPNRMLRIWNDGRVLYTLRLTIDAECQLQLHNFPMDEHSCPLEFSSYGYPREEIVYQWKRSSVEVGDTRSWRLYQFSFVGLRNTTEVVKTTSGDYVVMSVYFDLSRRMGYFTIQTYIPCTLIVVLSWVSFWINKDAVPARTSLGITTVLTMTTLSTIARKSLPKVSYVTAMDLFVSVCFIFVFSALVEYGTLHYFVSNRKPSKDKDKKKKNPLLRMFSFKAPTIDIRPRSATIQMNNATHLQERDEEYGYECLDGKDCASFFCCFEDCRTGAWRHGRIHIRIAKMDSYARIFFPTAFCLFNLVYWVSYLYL
Chain of Gamma-aminobutyric acid receptor subunit alpha-1/alpha-2/beta-2/gamma-2 (P47869 whole entry): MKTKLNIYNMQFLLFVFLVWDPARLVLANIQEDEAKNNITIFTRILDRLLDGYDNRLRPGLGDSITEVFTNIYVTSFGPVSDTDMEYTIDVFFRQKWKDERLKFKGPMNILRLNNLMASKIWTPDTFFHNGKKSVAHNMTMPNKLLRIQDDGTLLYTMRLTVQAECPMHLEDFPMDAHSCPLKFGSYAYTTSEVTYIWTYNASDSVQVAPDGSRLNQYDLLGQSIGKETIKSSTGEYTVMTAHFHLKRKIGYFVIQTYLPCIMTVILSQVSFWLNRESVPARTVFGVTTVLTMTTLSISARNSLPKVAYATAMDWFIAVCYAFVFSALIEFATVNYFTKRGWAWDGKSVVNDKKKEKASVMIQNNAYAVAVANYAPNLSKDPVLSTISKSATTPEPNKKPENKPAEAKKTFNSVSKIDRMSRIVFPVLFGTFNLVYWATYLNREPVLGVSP
T1 sequence (P35367 whole entry): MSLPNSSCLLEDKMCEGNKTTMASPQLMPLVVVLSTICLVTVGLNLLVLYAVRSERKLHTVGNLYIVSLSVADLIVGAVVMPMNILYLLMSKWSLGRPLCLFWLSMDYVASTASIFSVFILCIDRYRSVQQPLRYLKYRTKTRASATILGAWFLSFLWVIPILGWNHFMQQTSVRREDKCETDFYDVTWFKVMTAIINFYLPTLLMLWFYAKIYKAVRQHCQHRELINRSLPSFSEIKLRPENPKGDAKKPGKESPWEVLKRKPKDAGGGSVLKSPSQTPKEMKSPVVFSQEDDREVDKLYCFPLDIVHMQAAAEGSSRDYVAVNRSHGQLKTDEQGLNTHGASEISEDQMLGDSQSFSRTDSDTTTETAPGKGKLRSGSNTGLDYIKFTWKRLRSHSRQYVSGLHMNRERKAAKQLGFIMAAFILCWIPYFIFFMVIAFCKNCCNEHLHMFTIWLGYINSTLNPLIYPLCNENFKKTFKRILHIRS
Chain of Beta-3 adrenergic receptor (P13945 whole entry): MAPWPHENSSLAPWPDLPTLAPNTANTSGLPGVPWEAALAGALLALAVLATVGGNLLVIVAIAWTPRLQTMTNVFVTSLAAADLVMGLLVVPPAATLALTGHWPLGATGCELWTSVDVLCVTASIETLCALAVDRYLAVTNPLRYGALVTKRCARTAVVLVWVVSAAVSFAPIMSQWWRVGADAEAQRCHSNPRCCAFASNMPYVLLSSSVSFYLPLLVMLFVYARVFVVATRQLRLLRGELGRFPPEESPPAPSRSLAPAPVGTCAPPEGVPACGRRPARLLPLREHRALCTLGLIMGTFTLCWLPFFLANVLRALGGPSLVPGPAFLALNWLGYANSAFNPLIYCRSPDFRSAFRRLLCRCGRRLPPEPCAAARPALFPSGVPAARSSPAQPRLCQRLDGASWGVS

C=C1CC[C@@]2(O)[C@H]3Cc4ccc(O)c5c4[C@@]2(CCN3CC2CC2)[C@H]1O5
AC50 (Histamine H1 receptor [1]): > 30 µM | AC50 [2]: > 30 µM | AC50 (Histamine H1 receptor [3]): > 30 µM

Nc1ncnc2c1ncn2[C@@H]1O[C@H](COP(=O)(O)O)[C@@H](O)[C@H]1O [ADENOSINE PHOSPHATE]
AC50 (Histamine H1 receptor [1]): > 30 µM | AC50 [2]: > 30 µM | AC50 (Histamine H1 receptor [3]): > 30 µM

NC(CO)C(=O)NNCc1ccc(O)c(O)c1O (stereo not drawn) [BENSERAZIDE]
AC50 (Histamine H1 receptor [1]): > 30 µM | AC50 [4]: > 30 µM | AC50 [5]: > 10 µM | AC50 (Histamine H1 receptor [3]): > 30 µM | AC50 [6]: > 10 µM | AC50 [7]: > 10 µM

CCC(C(=O)O)c1ccc(CC(C)C)cc1 (stereo not drawn) [BUTIBUFEN]
AC50 [8]: > 30 µM | AC50 (Androgen receptor): > 30 µM

[H]/N=C(/N)c1ccc(NCc2nc3cc(C(=O)N(CCC(=O)O)c4ccccn4)ccc3n2C)cc1 [DABIGATRAN]
AC50 [9]: > 30 µM | AC50 [10]: > 30 µM | AC50 [2]: > 30 µM | AC50 (Androgen receptor): > 30 µM

O=C1CN=C(c2ccccc2)c2cc(Cl)ccc2N1CC(F)(F)F [HALAZEPAM]
AC50 (Histamine H1 receptor [1]): > 30 µM | AC50 [9]: > 30 µM | AC50 [2]: > 30 µM | AC50 (Histamine H1 receptor [3]): > 30 µM

C1=Cc2cccc(OCC3CNCCO3)c2C1 (stereo not drawn) [INDELOXAZINE]
AC50 [8]: > 30 µM | AC50 (Androgen receptor): > 30 µM

CC/C=C\C/C=C\C/C=C\CCCCCCCC(=O)O [LINOLENIC ACID]
AC50 (Histamine H1 receptor [1]): > 30 µM | AC50 [2]: > 30 µM | AC50 (Histamine H1 receptor [3]): > 30 µM

O=C(O)Cc1cn(-c2ccccc2)nc1-c1ccc(Cl)cc1 [LONAZOLAC]
AC50 [8]: > 30 µM

C#C[C@]1(O)CC[C@H]2[C@@H]3CCC4=CCCC[C@@H]4[C@H]3CC[C@@]21C [LYNESTRENOL]
AC50 [8]: > 30 µM

C[C@H]1C[C@@H]2[C@H]([C@@H](O)C[C@@]3(C)[C@H]2CC[C@]3(O)C(=O)COC(=O)CCC(=O)O)[C@@]2(C)C=CC(=O)C=C12 [METHYLPREDNISOLONE HEMISUCCINATE]
AC50 (Histamine H1 receptor [1]): > 30 µM | AC50 [9]: > 30 µM | AC50 [2]: > 30 µM | AC50 (Histamine H1 receptor [3]): > 30 µM

C[C@]12CCC(=O)C=C1CC[C@@H]1[C@@H]2CC[C@@]2(C)[C@H]1CC[C@]2(C)O [METHYLTESTOSTERONE]
AC50 [8]: > 30 µM

CCCCC(C)(O)C/C=C/[C@H]1[C@H](O)CC(=O)[C@@H]1CCCCCCC(=O)OC (stereo partly drawn) [MISOPROSTOL]
AC50 (Histamine H1 receptor [1]): > 30 µM | AC50 [2]: > 30 µM | AC50 (Histamine H1 receptor [3]): > 30 µM

COc1c(C)c2c(c(O)c1C/C=C(\C)CCC(=O)OCCN1CCOCC1)C(=O)OC2 [MYCOPHENOLATE MOFETIL]
AC50 [8]: > 30 µM | AC50 (Androgen receptor): > 30 µM

CCCCCCC(C)(C)c1cc(O)c2c(c1)OC(C)(C)C1CCC(=O)CC21 (stereo not drawn) [NABILONE]
AC50 (Histamine H1 receptor [1]): > 30 µM | AC50 [9]: > 30 µM | AC50 [2]: > 30 µM | AC50 (Histamine H1 receptor [3]): > 30 µM | AC50 (Androgen receptor): > 30 µM

Cc1c(Cl)cccc1Nc1ccccc1C(=O)O [TOLFENAMIC ACID]
AC50 [8]: > 30 µM

COc1ccc(C(=O)N2CCN(c3ccc4c(c3)CCC(=O)N4)CC2)cc1OC [VESNARINONE]
AC50 (Histamine H1 receptor [1]): > 30 µM | AC50 [2]: > 30 µM | AC50 (Histamine H1 receptor [3]): > 30 µM
